pIC50: −log10 of the molar value.
Tests used:
COR-L279 = experiment: SANGER: Inhibition of human COR-L279 cell growth in a cell viability assay.; format: functional, cell-based
CP66-MEL = experiment: cells; format: functional, cell-based, Homo sapiens; settings: Homo sapiens, CP66-MEL;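 note: growth inhibition of CP66-MEL cells determined in a cell viability assay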
Description: SANGER: Inhibition of human CP66-MEL cell growth in a cell viability assay.

CPC-N = experiment: cells; format: functional, cell-based; settings: Homo sapiens;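 note: growth inhibition of CPC-N cells, with a cell viability assay as the readout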
Description: SANGER: Inhibition of human CPC-N cell growth in a cell viability assay.

G-401 = experiment: cells; format: functional, cell-based, Homo sapiens; settings: Homo sapiens, G-401
Description: SANGER: Inhibition of human G-401 cell growth in a cell viability assay.

GDM-1 = experiment: cells; format: functional, cell-based; settings: Homo sapiens;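 note: cell viability readout used to measure growth inhibition of human GDM-1 cells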
Description: SANGER: Inhibition of human GDM-1 cell growth in a cell viability assay.

HCC 2998 = experiment: cells; format: functional, cell-based, Homo sapiens; settings: Homo sapiens, HCC 2998;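 note: growth inhibition of human HCC2998 cells, measured with a cell viability read-out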
Description: SANGER: Inhibition of human HCC2998 cell growth in a cell viability assay.

HSC-4 = experiment: cells; format: functional, cell-based, Homo sapiens; settings: Homo sapiens, HSC-4;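 note: growth inhibition of human HSC-4 cells, read out with a cell viability assay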
Description: SANGER: Inhibition of human HSC-4 cell growth in a cell viability assay.

HT55 = experiment: cells; format: functional, cell-based, Homo sapiens; settings: Homo sapiens, HT55;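 note: cell viability readout measuring growth inhibition of human HT55 cells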
Description: SANGER: Inhibition of human HT55 cell growth in a cell viability assay.

HuO9 = experiment: cells; format: functional, cell-based, Homo sapiens; settings: Homo sapiens, HuO9;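 note: growth inhibition of HuO9 cells, read out with a cell viability assay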
Description: SANGER: Inhibition of human HuO9 cell growth in a cell viability assay.

IGR-1 = experiment: cells; format: functional, cell-based, Homo sapiens; settings: Homo sapiens, IGR-1;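 note: growth inhibition of human IGR-1 cells, read out with a cell viability assay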
Description: SANGER: Inhibition of human IGR-1 cell growth in a cell viability assay.

JVM-3 = experiment: cells; format: functional, cell-based; settings: Homo sapiens;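 note: growth inhibition of human JVM-3 cells, read out with a cell viability assay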
Description: SANGER: Inhibition of human JVM-3 cell growth in a cell viability assay.

KARPAS-422 = experiment: cells; format: functional, cell-based; settings: Homo sapiens
Description: SANGER: Inhibition of human KARPAS-422 cell growth in a cell viability assay.

L-540 = experiment: cells; format: functional, cell-based; settings: Homo sapiens;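 note: growth inhibition of the human L-540 cell line, read out with a viability assay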
Description: SANGER: Inhibition of human L-540 cell growth in a cell viability assay.

LAMA-84 = experiment: cells; format: functional, cell-based; settings: Homo sapiens;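 note: growth inhibition of LAMA-84 cells, read out with a cell viability assay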
Description: SANGER: Inhibition of human LAMA-84 cell growth in a cell viability assay.

LB831-BLC = experiment: cells; format: functional, cell-based, Homo sapiens; settings: Homo sapiens, LB831-BLC;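 note: growth inhibition of LB831-BLC cells, read out with a cell viability assay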
Description: SANGER: Inhibition of human LB831-BLC cell growth in a cell viability assay.

LC4-1 = experiment: cells; format: functional, cell-based; settings: Homo sapiens;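 note: growth inhibition of LC4-1 cells, read out with a cell viability assay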
Description: SANGER: Inhibition of human LC4-1 cell growth in a cell viability assay.

LU-165 = experiment: cells; format: functional, cell-based; settings: Homo sapiens
Description: SANGER: Inhibition of human LU-165 cell growth in a cell viability assay.

LXF-289 cell line = experiment: cells; format: functional, cell-based, Homo sapiens; settings: Homo sapiens, LXF-289
Description: SANGER: Inhibition of human LXF-289 cell growth in a cell viability assay.

MONO-MAC-6 = experiment: cells; format: functional, cell-based; settings: Homo sapiens;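 note: cell viability assay measuring growth inhibition of human MONO-MAC-6 cells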
Description: SANGER: Inhibition of human MONO-MAC-6 cell growth in a cell viability assay.

NCI-H1092 = experiment: cells; format: functional, cell-based; settings: Homo sapiens
Description: SANGER: Inhibition of human NCI-H1092 cell growth in a cell viability assay.

NCI-H1436 = experiment: cells; format: functional, cell-based; settings: Homo sapiens;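 note: growth suppression of human NCI-H1436 cells, determined with a cell viability readout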
Description: SANGER: Inhibition of human NCI-H1436 cell growth in a cell viability assay.

NCI-H1963 = experiment: cells; format: functional, cell-based; settings: Homo sapiens;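 note: cell growth inhibition of the human line, determined with a cell viability assay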
Description: SANGER: Inhibition of human NCI-H1963 cell growth in a cell viability assay.

NCI-H1993 = experiment: cells; format: functional, cell-based, Homo sapiens; settings: Homo sapiens, NCI-H1993;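 note: growth inhibition of the cancer cell line, assessed with a cell viability assay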
Description: SANGER: Inhibition of human NCI-H1993 cell growth in a cell viability assay.

NCI-H2196 = experiment: cells; format: functional, cell-based; settings: Homo sapiens;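 note: cell viability assay used as the readout of growth inhibition in NCI-H2196 cells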
Description: SANGER: Inhibition of human NCI-H2196 cell growth in a cell viability assay.

NCI-H2405 = experiment: cells; format: functional, cell-based, Homo sapiens; settings: Homo sapiens, NCI-H2405;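 note: growth inhibition of the human cell line, read out with a cell viability assay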
Description: SANGER: Inhibition of human NCI-H2405 cell growth in a cell viability assay.

NCI-H716 = experiment: cells; format: functional, cell-based; settings: Homo sapiens;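 note: growth inhibition of human NCI-H716 cells, measured by a cell viability assay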
Description: SANGER: Inhibition of human NCI-H716 cell growth in a cell viability assay.

NCI-H889 = experiment: cells; format: functional, cell-based; settings: Homo sapiens;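 note: cell growth inhibition of the cell line, read out with a viability assay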
Description: SANGER: Inhibition of human NCI-H889 cell growth in a cell viability assay.

OPM-2 = experiment: cells; format: functional, cell-based; settings: Homo sapiens;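 note: growth of OPM-2 cells measured with a viability assay, IC50 for suppression of proliferation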
Description: SANGER: Inhibition of human OPM-2 cell growth in a cell viability assay.

P31-FUJ = experiment: cells; format: functional, cell-based; settings: Homo sapiens;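 note: growth inhibition of P31-FUJ cells, read out with a viability assay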
Description: SANGER: Inhibition of human P31-FUJ cell growth in a cell viability assay.

RD = experiment: cells; format: functional, cell-based, Homo sapiens; settings: Homo sapiens, RD
Description: SANGER: Inhibition of human RD cell growth in a cell viability assay.

RL = experiment: cells; format: functional, cell-based; settings: Homo sapiens
Description: SANGER: Inhibition of human RL cell growth in a cell viability assay.

RL95-2 = experiment: cells; format: functional, cell-based; settings: Homo sapiens;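 note: RL95-2 growth inhibition determined through a cell viability readout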
Description: SANGER: Inhibition of human RL95-2 cell growth in a cell viability assay.

SF-539 = experiment: cells; format: functional, cell-based, Homo sapiens; settings: Homo sapiens, SF-539;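 note: Read-out is a cell viability assay, with IC50 reflecting inhibition of cell growth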
Description: SANGER: Inhibition of human SF539 cell growth in a cell viability assay.

SIMA = experiment: cells; format: functional, cell-based, Homo sapiens; settings: Homo sapiens, SIMA;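 note: growth inhibition of SIMA cells, measured with a cell viability readout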
Description: SANGER: Inhibition of human SIMA cell growth in a cell viability assay.

SUP-T1 = experiment: cells; format: functional, cell-based; settings: Homo sapiens;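 note: growth inhibition of human SUP-T1 cells, read out as cell viability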
Description: SANGER: Inhibition of human SUP-T1 cell growth in a cell viability assay.

T-24 = experiment: cells; format: functional, cell-based, Homo sapiens; settings: Homo sapiens, T-24;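 note: growth inhibition of T-24 cells, read out with a cell viability assay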
Description: SANGER: Inhibition of human T-24 cell growth in a cell viability assay.

TALL-1 = experiment: cells; format: functional, cell-based; settings: Homo sapiens;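 note: growth inhibition of cultured human TALL-1 cells, read out by a cell viability assay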
Description: SANGER: Inhibition of human TALL-1 cell growth in a cell viability assay.

23132-87 = experiment: cells; format: functional, cell-based, Homo sapiens; settings: Homo sapiens
Description: SANGER: Inhibition of human 23132-87 cell growth in a cell viability assay.

A3-KAW = experiment: cells; format: functional, cell-based; settings: Homo sapiens;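 note: growth inhibition of human A3-KAW cells, read out with a cell viability assay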
Description: SANGER: Inhibition of human A3-KAW cell growth in a cell viability assay.

ASPC1 = experiment: cells; format: functional, cell-based, Homo sapiens; settings: Homo sapiens, ASPC1;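 note: growth inhibition of AsPC-1 cells, read out with a cell viability assay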
Description: SANGER: Inhibition of human AsPC-1 cell growth in a cell viability assay.

BC-3 = experiment: cells; format: functional, cell-based; settings: Homo sapiens;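 note: cell viability assay measuring growth inhibition of human BC-3 cells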
Description: SANGER: Inhibition of human BC-3 cell growth in a cell viability assay.

BL-41 = experiment: cells; format: functional, cell-based; settings: Homo sapiens;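 note: growth inhibition of human BL-41 cells, read out with a cell viability assay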
Description: SANGER: Inhibition of human BL-41 cell growth in a cell viability assay.

BL-70 = experiment: SANGER: Inhibition of human BL-70 cell growth in a cell viability assay.; format: functional, cell-based
C2BBe1 = experiment: cells; format: functional, cell-based, Homo sapiens; settings: Homo sapiens, C2BBe1;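 note: growth inhibition of C2BBe1 cells, read out through a viability assay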
Description: SANGER: Inhibition of human C2BBe1 cell growth in a cell viability assay.

CAL-12T = experiment: cells; format: functional, cell-based, Homo sapiens; settings: Homo sapiens, CAL-12T;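 note: growth inhibition of human CAL-12T cells, read out with a cell viability assay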
Description: SANGER: Inhibition of human CAL-12T cell growth in a cell viability assay.

TE-441-T = experiment: cells; format: functional, cell-based; settings: Homo sapiens
Description: SANGER: Inhibition of human TE-441-T cell growth in a cell viability assay.

TE-9 = experiment: cells; format: functional, cell-based, Homo sapiens; settings: Homo sapiens, TE-9;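 note: cell growth inhibition, measured with a cell viability readout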
Description: SANGER: Inhibition of human TE-9 cell growth in a cell viability assay.

U-698-M = experiment: cells; format: functional, cell-based; settings: Homo sapiens
Description: SANGER: Inhibition of human U-698-M cell growth in a cell viability assay.

U-87 MG = experiment: cells; format: functional, cell-based, U-87MG ATCC; settings: Homo sapiens
Description: SANGER: Inhibition of human U-87-MG cell growth in a cell viability assay.

UACC-812 = experiment: cells; format: functional, cell-based; settings: Homo sapiens
Description: SANGER: Inhibition of human UACC-812 cell growth in a cell viability assay.

YT = experiment: cells; format: functional, cell-based; settings: Homo sapiens
Description: SANGER: Inhibition of human YT cell growth in a cell viability assay.

Cc1cnc(-c2cnc(NCCNc3ccc(C#N)cn3)nc2-c2ccc(Cl)cc2Cl)[nH]1 [LADUVIGLUSIB]
pIC50 (COR-L279): < 5.59
pIC50 (CP66-MEL): < 5.59
pIC50 (CPC-N): < 5.59
pIC50 (G-401): < 5.59
pIC50 (GDM-1): < 5.59
pIC50 (HCC 2998): < 5.59
pIC50 (HSC-4): < 5.59
pIC50 (HT55): < 5.59
pIC50 (HuO9): < 5.59
pIC50 (IGR-1): < 5.59
pIC50 (JVM-3): < 5.59
pIC50 (KARPAS-422): < 5.59
pIC50 (L-540): < 5.59
pIC50 (LAMA-84): < 5.59
pIC50 (LB831-BLC): < 5.59
pIC50 (LC4-1): < 5.59
pIC50 (LU-165): < 5.59
pIC50 (LXF-289 cell line): < 5.59
pIC50 (MONO-MAC-6): < 5.59
pIC50 (NCI-H1092): < 5.59
pIC50 (NCI-H1436): < 5.59
pIC50 (NCI-H1963): < 5.59
pIC50 (NCI-H1993): < 5.59
pIC50 (NCI-H2196): < 5.59
pIC50 (NCI-H2405): < 5.59
pIC50 (NCI-H716): < 5.59
pIC50 (NCI-H889): < 5.59
pIC50 (OPM-2): < 5.59
pIC50 (P31-FUJ): < 5.59
pIC50 (RD): < 5.59
pIC50 (RL): < 5.59
pIC50 (RL95-2): < 5.59
pIC50 (SF-539): < 5.59
pIC50 (SIMA): < 5.59
pIC50 (SUP-T1): < 5.59
pIC50 (T-24): < 5.59
pIC50 (TALL-1): < 5.59
pIC50 (23132-87): < 5.59
pIC50 (A3-KAW): < 5.59
pIC50 (ASPC1): < 5.59
pIC50 (BC-3): < 5.59
pIC50 (BL-41): < 5.59
pIC50 (BL-70): < 5.59
pIC50 (C2BBe1): < 5.59
pIC50 (CAL-12T): < 5.59
pIC50 (TE-441-T): < 5.59
pIC50 (TE-9): < 5.59
pIC50 (U-698-M): < 5.59
pIC50 (U-87 MG): < 5.59
pIC50 (UACC-812): < 5.59
pIC50 (YT): < 5.59

COc1cc([C@@H]2c3cc4c(cc3[C@@H](O[C@@H]3O[C@@H]5CO[C@@H](C)O[C@H]5[C@H](O)[C@H]3O)[C@H]3COC(=O)[C@H]23)OCO4)cc(OC)c1O [ETOPOSIDE]
pIC50 (COR-L279): 5.90
pIC50 (CP66-MEL): 5.20
pIC50 (CPC-N): < 4.80
pIC50 (G-401): 5.84
pIC50 (GDM-1): 5.47
pIC50 (HCC 2998): 5.90
pIC50 (HSC-4): 5.90
pIC50 (HT55): < 4.80
pIC50 (HuO9): 6.03
pIC50 (IGR-1): 5.80
pIC50 (JVM-3): < 4.80
pIC50 (KARPAS-422): 5.36
pIC50 (L-540): 5.98
pIC50 (LAMA-84): 5.04
pIC50 (LB831-BLC): 5.21
pIC50 (LC4-1): 5.49
pIC50 (LU-165): < 4.80
pIC50 (LXF-289 cell line): 5.68
pIC50 (MONO-MAC-6): 4.92
pIC50 (NCI-H1092): < 4.80
pIC50 (NCI-H1436): < 4.80
pIC50 (NCI-H1963): 4.92
pIC50 (NCI-H1993): < 4.80
pIC50 (NCI-H2196): 5.13
pIC50 (NCI-H2405): 5.61
pIC50 (NCI-H716): < 4.80
pIC50 (NCI-H889): < 4.80
pIC50 (OPM-2): < 4.80
pIC50 (P31-FUJ): < 4.80
pIC50 (RD): 5.32
pIC50 (RL): < 4.80
pIC50 (RL95-2): 5.95
pIC50 (SF-539): 5.79
pIC50 (SIMA): 5.05
pIC50 (SUP-T1): 6.15
pIC50 (T-24): < 4.80
pIC50 (TALL-1): < 4.80
pIC50 (23132-87): 6.30
pIC50 (A3-KAW): 6.45
pIC50 (ASPC1): < 4.80
pIC50 (BC-3): 5.61
pIC50 (BL-41): 5.68
pIC50 (BL-70): 5.15
pIC50 (C2BBe1): < 4.80
pIC50 (CAL-12T): 4.95
pIC50 (TE-441-T): < 4.80
pIC50 (TE-9): 7.25
pIC50 (U-698-M): 4.90
pIC50 (U-87 MG): < 4.80
pIC50 (UACC-812): < 4.80
pIC50 (YT): < 4.80

CCC1=C[C@@H]2CN(C1)Cc1c([nH]c3ccccc13)[C@@](C(=O)OC)(c1cc3c(cc1OC)N(C)[C@H]1[C@@](O)(C(=O)OC)[C@H](OC(C)=O)[C@]4(CC)C=CCN5CC[C@]31[C@@H]54)C2 [VINORELBINE]
pIC50 (COR-L279): < 7.19
pIC50 (CP66-MEL): 7.35
pIC50 (CPC-N): < 7.19
pIC50 (G-401): 8.10
pIC50 (GDM-1): 7.61
pIC50 (HCC 2998): 8.30
pIC50 (HSC-4): < 7.19
pIC50 (HT55): < 7.19
pIC50 (HuO9): 8.15
pIC50 (IGR-1): 8.72
pIC50 (JVM-3): < 7.19
pIC50 (KARPAS-422): 7.63
pIC50 (L-540): 7.52
pIC50 (LAMA-84): 7.34
pIC50 (LB831-BLC): 7.54
pIC50 (LC4-1): 8.14
pIC50 (LU-165): < 7.19
pIC50 (LXF-289 cell line): 8.33
pIC50 (MONO-MAC-6): 7.69
pIC50 (NCI-H1092): 7.24
pIC50 (NCI-H1436): 7.87
pIC50 (NCI-H1963): 7.52
pIC50 (NCI-H1993): < 7.19
pIC50 (NCI-H2196): < 7.19
pIC50 (NCI-H2405): 7.29
pIC50 (NCI-H716): < 7.19
pIC50 (NCI-H889): 7.39
pIC50 (OPM-2): 8.20
pIC50 (P31-FUJ): < 7.19
pIC50 (RD): 8.27
pIC50 (RL): < 7.19
pIC50 (RL95-2): 8.15
pIC50 (SF-539): 7.85
pIC50 (SIMA): < 7.19
pIC50 (SUP-T1): 8.33
pIC50 (T-24): < 7.19
pIC50 (TALL-1): < 7.19
pIC50 (23132-87): 8.16
pIC50 (A3-KAW): 7.67
pIC50 (ASPC1): < 7.19
pIC50 (BC-3): 7.51
pIC50 (BL-41): 8.28
pIC50 (BL-70): 8.50
pIC50 (C2BBe1): < 7.19
pIC50 (CAL-12T): 7.68
pIC50 (TE-441-T): 7.46
pIC50 (TE-9): 8.97
pIC50 (U-698-M): 7.91
pIC50 (U-87 MG): 7.57
pIC50 (UACC-812): < 7.19
pIC50 (YT): < 7.19
